These results are taken from PubChem BioAssay (NCI).

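A five-concentration, 48-hour dose response in 96-well plates underlies each endpoint, interpolated linearly between surrounding concentrations. The concentration for full growth arrest is given as TGI.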

Among the test systems are A549 NSCLC; K-562 leukemia; BT-549 breast; CCRF-CEM leukemia; HCT-116 colon; HCC-2998 colon.
Common to all, as to test: NCI anticancer screen, dose series, 48 h

`C#CCOC(=O)C(N)CC(N)=O` (stereo unspecified): the TGI in the experiment on A549 NSCLC, in the experiment with K-562 leukemia, in the experiment on BT-549 breast, with CCRF-CEM leukemia, with HCT-116 colon and in the experiment with HCC-2998 colon was above 100 µM each time.
With `O=C1CSC(c2c[nH]c3ccccc23)N1c1cccc(Cl)c1` (stereo unspecified), the TGI in the experiment on A549 NSCLC was above 100 µM; in the experiment on K-562 leukemia it was above 100 µM; in the experiment with BT-549 breast, 96.6 µM; with CCRF-CEM leukemia, above 100 µM; in the experiment with HCT-116 colon, above 100 µM; in the experiment with HCC-2998 colon, above 100 µM.
Regarding `CCCCCCCCCCCCCCCCOCC(COP(=O)(O)OCC1OC(n2cc(CC)c(=O)[nH]c2=O)CC1O)OC(=O)CCCCCCCCCCCCCCC` (stereo unspecified), the TGI in the experiment with A549 NSCLC, with K-562 leukemia, with CCRF-CEM leukemia, in the experiment on HCT-116 colon and in the experiment on HCC-2998 colon was above 100 µM in each case.
Regarding `CC1=C(O)C(=O)C=C2C1=CC=C1[C@@]2(C)CC[C@@]2(C)C3C[C@@H](C)C(=O)[C@@H](O)[C@]3(C)CC[C@]12C` (stereo partly specified), the TGI was 28.5 µM in the experiment on A549 NSCLC; 5.17 µM in the experiment on K-562 leukemia; 3.4 µM in the experiment with BT-549 breast; 1.87 µM with CCRF-CEM leukemia; 3.21 µM in the experiment on HCT-116 colon; 9.65 µM in the experiment on HCC-2998 colon.
For `Clc1ccc(Cc2nc3ccccc3o2)cc1`, the TGI with A549 NSCLC, with K-562 leukemia, with BT-549 breast, with CCRF-CEM leukemia, in the experiment on HCT-116 colon and with HCC-2998 colon was above 100 µM in each case.
As for `CC(NCc1c(O)ccc2c(-c3ccccc3)cc(=O)oc12)C(=O)O` (stereo unspecified), the TGI in the experiment on A549 NSCLC, in the experiment on K-562 leukemia, in the experiment on CCRF-CEM leukemia, with HCT-116 colon and in the experiment with HCC-2998 colon was above 100 µM each time.
For the compound `Cc1ccc2c(c1C)C(=O)C1(C2)Cc2ccc3c(c2C1=O)CCC3` (stereo unspecified), the TGI with A549 NSCLC, with K-562 leukemia, in the experiment with BT-549 breast, in the experiment on CCRF-CEM leukemia, with HCT-116 colon and in the experiment with HCC-2998 colon was above 100 µM throughout.
In the case of `CN1CCN(Cn2nc(COc3ccccc3Cl)n(/N=C/c3ccc(-c4ccc(Cl)cc4Cl)o3)c2=S)CC1`, the TGI was 89.9 µM in the experiment on K-562 leukemia, above 100 µM in the experiment on CCRF-CEM leukemia, 34.7 µM in the experiment on HCT-116 colon and 33.8 µM with HCC-2998 colon.
For `COC(=NC(C)C)NC(C)C`, the TGI in the experiment with A549 NSCLC, in the experiment on K-562 leukemia, with CCRF-CEM leukemia, in the experiment with HCT-116 colon and in the experiment on HCC-2998 colon was above 100 µM in each case.
With `CC(=O)OCC1OC(n2c3c(c(-c4ccc(C)cc4)c(C#N)c2=S)C(=O)CC(C)(C)C3)C(OC(C)=O)C(OC(C)=O)C1OC(C)=O` (stereo unspecified), the TGI in the experiment on A549 NSCLC was above 100 µM; in the experiment with K-562 leukemia it was 95.3 µM; in the experiment with BT-549 breast, 38.1 µM; in the experiment on CCRF-CEM leukemia it was above 100 µM; in the experiment with HCT-116 colon it was above 100 µM.
As to `O=C1c2ccccc2C(=O)N1/N=C1/SC(=Nc2ccccc2)C(=Nc2ccccc2)N1c1ccccc1`, the TGI is above 100 µM in the experiment on A549 NSCLC; above 100 µM in the experiment with K-562 leukemia; above 100 µM with BT-549 breast; above 90.3 µM in the experiment on CCRF-CEM leukemia; above 100 µM in the experiment with HCT-116 colon; above 100 µM in the experiment on HCC-2998 colon.
Take `COc1cc(CN=c2nc(N(C)C)ss2)cc(OC)c1OC`: the TGI with A549 NSCLC was above 10 µM; with K-562 leukemia it was 5.67 µM; in the experiment with CCRF-CEM leukemia it was 1.56 µM; in the experiment on HCT-116 colon it was above 10 µM; in the experiment with HCC-2998 colon, above 10 µM.
On to `C/C=C1/CC(C(=O)OC)N(C(=O)OCc2ccccc2)C1=S` (stereo unspecified), for which the TGI in the experiment with A549 NSCLC, with K-562 leukemia, in the experiment on BT-549 breast, in the experiment on HCT-116 colon and with HCC-2998 colon was above 100 µM throughout.
Consider `COc1ccc2c(c1)/C(=C/c1c(O)[nH]c(=S)[nH]c1=O)C=N2`, for which the TGI with A549 NSCLC, with K-562 leukemia, in the experiment with BT-549 breast, with CCRF-CEM leukemia, with HCT-116 colon and in the experiment on HCC-2998 colon was above 100 µM in each case.
With `O=C(CNc1ccccc1[N+](=O)[O-])Nn1cnc2ccc(S(=O)(=O)Nc3ccccc3[N+](=O)[O-])cc2c1=O`, the TGI in the experiment with A549 NSCLC, with K-562 leukemia, with BT-549 breast, in the experiment on CCRF-CEM leukemia, in the experiment with HCT-116 colon and in the experiment with HCC-2998 colon was above 100 µM each time.
Take `C=CC(=O)NCCC(=O)OCn1cc(F)c(=O)[nH]c1=O`: the TGI in the experiment with A549 NSCLC is above 100 µM; in the experiment on K-562 leukemia, above 100 µM; in the experiment with BT-549 breast, above 100 µM; in the experiment with CCRF-CEM leukemia it was above 100 µM; in the experiment with HCT-116 colon it was 66.8 µM; in the experiment with HCC-2998 colon it was above 100 µM.
For `O=C(O)c1cc(CCc2ccc(O)c(O)c2)ccc1O`, the TGI was above 100 µM in the experiment with A549 NSCLC; 45.8 µM in the experiment with K-562 leukemia; above 100 µM in the experiment on BT-549 breast; above 100 µM with CCRF-CEM leukemia; above 100 µM in the experiment on HCT-116 colon; above 100 µM in the experiment on HCC-2998 colon.
Consider `O=C1c2ccccc2-c2nnc3c(c21)Cc1ccccc1C3`, for which the TGI with A549 NSCLC, in the experiment on K-562 leukemia, in the experiment on BT-549 breast, in the experiment with CCRF-CEM leukemia, with HCT-116 colon and in the experiment on HCC-2998 colon was above 10 µM in each case.
On to `COC(=O)C(=O)C(C(=O)C(=O)Nc1ccc(Cl)c(Cl)c1)c1nc2ccc(C(=O)c3ccccc3)cc2[nH]c1=O` (stereo unspecified), for which the TGI in the experiment on A549 NSCLC was above 100 µM; with K-562 leukemia, 12.9 µM; with BT-549 breast it was above 100 µM; with CCRF-CEM leukemia it was above 100 µM; in the experiment on HCT-116 colon, above 100 µM.
Regarding `O=C(c1ccc2ccccc2c1)C1(I)S(=O)(=O)OCCOS1(=O)=O`, the TGI in the experiment with A549 NSCLC, in the experiment on K-562 leukemia, in the experiment on BT-549 breast, in the experiment with CCRF-CEM leukemia, in the experiment on HCT-116 colon and with HCC-2998 colon was above 100 µM each time.
Turning to `COc1ccc(/C=C/C(=O)c2cc(OC)cc(OC)c2)cc1`, the TGI was 6.96 µM in the experiment on A549 NSCLC; above 100 µM in the experiment on K-562 leukemia; 10.1 µM with CCRF-CEM leukemia; 6.67 µM in the experiment with HCT-116 colon; 16.3 µM with HCC-2998 colon.
